Data published in US20130142877A1, “PHARMACEUTICAL DOSAGE FORM COMPRISING ONE OR MORE ANTIRETROVIRAL ACTIVE INGREDIENTS” (EVONIK ROEHM GmbH, priority 2010, published 2013).

Experiment: Crystallinity analysis by X-ray diffraction (XRD)
Type: physicochemical
Settings: pure API or extrudate after melt extrusion
Description: The mixtures of examples 1 to 4 were extrudated, comminuted and subsequently sifted through a sieve of 40 mesh (0.42 mm) and analyzed. X-ray diffraction analysis was carried out for crytallinity. Dissolution rate analysis of both active compound was carried out to check solubility enhancement.

Crystallinity by X-ray diffraction (XRD pattern)	Structure (SMILES)
crystalline form	Cc1cccc(C)c1OCC(=O)N[C@@H](Cc1ccccc1)[C@@H](O)C[C@H](Cc1ccccc1)NC(=O)[C@H](C(C)C)N1CCCNC1=O [Lopinavir]
crystalline form	CC(C)c1nc(CN(C)C(=O)N[C@H](C(=O)N[C@@H](Cc2ccccc2)C[C@H](O)[C@H](Cc2ccccc2)NC(=O)OCc2cncs2)C(C)C)cs1 [Ritonavir]
